Results published in US11059832B2, “HPK1 inhibitors and methods of using same” (University Health Network, priority 2015, dated 2021).
pIC50: −log10 of the molar value.

Key:
human HPK1 (MAP4K1) = molecular target: T1, human HPK1 (MAP4K1) (Homo sapiens, UniProt Q92918); experiment: HPK1 inhibition assay (indirect ELISA); assay type: biochemical; conditions: GST-HPK1 0.6 nM, 12 μM ATP; read-out: IC50 Range HPK1
T1 construct: human HPK1 (aa 1-346); purchased Invitrogen PV6355
T1 sequence (Q92918 1-346): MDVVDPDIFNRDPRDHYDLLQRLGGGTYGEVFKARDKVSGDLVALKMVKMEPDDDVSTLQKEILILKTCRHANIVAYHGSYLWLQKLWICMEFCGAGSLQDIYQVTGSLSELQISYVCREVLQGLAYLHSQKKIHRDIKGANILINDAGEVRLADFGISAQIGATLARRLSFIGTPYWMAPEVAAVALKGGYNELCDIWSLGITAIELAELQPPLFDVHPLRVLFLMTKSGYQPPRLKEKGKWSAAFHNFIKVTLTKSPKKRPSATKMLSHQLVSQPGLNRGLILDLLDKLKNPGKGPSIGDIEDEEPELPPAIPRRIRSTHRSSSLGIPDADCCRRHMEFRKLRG
In short: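 GST-tagged human HPK1 (aa 1-346, 0.6 nM) phosphorylated MBP-coated wells with 12 μM ATP in MOPS pH 7.2/Mg2+ buffer for 30 min after 15-min compound preincubation; phospho-Thr detected by antibody ELISA with TMB, 450 nm. Tested at 10 μM or 10-point titration (typically 50-0.1 μM); IC50 by 4-parameter logistic fit.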

LCK = molecular target: T2, LCK (Homo sapiens, UniProt P06239); experiment: LCK inhibition, FRET based Z'-LYTE Kinase Assay; assay type: biochemical; conditions: 25 nM LCK, 180 μM ATP; read-out: IC50 Range Lck
T2 construct: purchased Invitrogen P3043
Protocol: (§1) FLT3 and LCK compound inhibition were determined using FRET based Z′-LYTE Kinase Assay Kit with Tyrosine 2 peptide as the substrate (Invitrogen cat #PV3191). […] The % inhibition values were determined according to the manufacturer's directions and IC50 values were obtained using a non-linear 4 point logistic curve fit (XLfit4, IDBS).

FLT3 = molecular target: T3, FLT3 (Homo sapiens, UniProt P36888); experiment: FLT3 inhibition, FRET based Z'-LYTE Kinase Assay; assay type: biochemical; conditions: 1 nM FLT3, 940 μM ATP; read-out: IC50 Range Flt3
T3 construct: purchased Invitrogen PV3182
T3 sequence (P36888 27-993): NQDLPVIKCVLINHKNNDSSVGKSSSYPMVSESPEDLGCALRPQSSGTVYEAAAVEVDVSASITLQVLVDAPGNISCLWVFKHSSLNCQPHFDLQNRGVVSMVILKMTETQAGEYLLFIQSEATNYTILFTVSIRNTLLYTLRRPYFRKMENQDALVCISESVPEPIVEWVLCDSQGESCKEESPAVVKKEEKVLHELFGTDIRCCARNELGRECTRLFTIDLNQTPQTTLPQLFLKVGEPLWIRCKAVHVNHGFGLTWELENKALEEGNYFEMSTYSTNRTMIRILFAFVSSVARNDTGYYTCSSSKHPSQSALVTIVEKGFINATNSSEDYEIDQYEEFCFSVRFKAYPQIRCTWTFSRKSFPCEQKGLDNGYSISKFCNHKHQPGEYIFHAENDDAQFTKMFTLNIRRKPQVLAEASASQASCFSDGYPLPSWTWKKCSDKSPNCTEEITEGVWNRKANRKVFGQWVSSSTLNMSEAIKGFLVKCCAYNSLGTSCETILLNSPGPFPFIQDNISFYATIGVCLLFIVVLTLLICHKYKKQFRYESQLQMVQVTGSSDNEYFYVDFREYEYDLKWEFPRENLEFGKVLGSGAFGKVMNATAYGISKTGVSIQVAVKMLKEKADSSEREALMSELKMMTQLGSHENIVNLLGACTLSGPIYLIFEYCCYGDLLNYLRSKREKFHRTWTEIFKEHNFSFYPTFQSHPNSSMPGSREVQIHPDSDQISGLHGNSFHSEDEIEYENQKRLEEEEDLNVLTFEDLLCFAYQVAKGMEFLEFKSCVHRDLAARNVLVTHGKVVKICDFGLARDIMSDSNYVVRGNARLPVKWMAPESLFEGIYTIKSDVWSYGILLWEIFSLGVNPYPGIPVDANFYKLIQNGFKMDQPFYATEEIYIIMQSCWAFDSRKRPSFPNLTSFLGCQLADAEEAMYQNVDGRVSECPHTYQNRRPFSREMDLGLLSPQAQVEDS
Protocol: as §1

[1] = system: SLP-76 serine 376 phosphorylation in α-CD3 stimulated Jurkat E6.1 cells; experiment: In vitro phosphorylation assay, SLP-76 Ser376 (immunoblot); assay type: cell-based; conditions: Homo sapiens, 4 h pretreatment, substantive = >75% inhibition as estimated by immunoblot analysis, read-out: SLP76 S376 Phosphorylation Onset-Substantive* Inhibition
Protocol: (§2) Jurkat E6.1 cells were obtained from American Type Culture Collection (ATCC, Manassas, Va.), and maintained according to the supplier's instructions. Cells were washed three times and starved in RPMI 1640 medium supplemented with 0.5% fetal calf serum for 18 h at 37° C. Serum starved cells were pretreated with the indicated concentration of inhibitor for 4 hours before stimulation with 10 μg/ml α-CD3 antibody (BioLegend, Inc., San Diego, Calif.) for 10 min at 37° C. The cells were washed once in phosphate-buffered saline (pH 7.4) containing 10 mm sodium pyrophosphate, 10 mm sodium fluoride, 10 mm EDTA, and 1 mm sodium orthovanadate. Protein lysates were prepared using ice-cold radioimmunoprecipitation assay (RIPA) lysis buffer. A total of 100 μg of cell lysate was loaded onto Bis-Tris gels (Life Technologies, Carlsbad, Calif.) with full-range molecular weight marker as a size reference, and resolved by SDS-PAGE electrophoresis. Proteins were transferred to PVDF membrane (Millipore, Billerica, Mass.), blocked and probed with antibodies for phospho-SLP-76 (Ser376) (rabbit polyclonal #13177; Cell Signaling Technology Inc., Danvers, Mass.), SLP-76 (rabbit polyclonal #4958; Cell Signaling Technology Inc., Danvers, Mass.), phospho-ERK (mouse monoclonal sc-7383; Santa Cruz Biotechnology Inc., Santa Cruz, Calif.) and ERK1/2 (rabbit polyclonal 06-182; Millipore, Billerica, Mass.). Secondary antibodies were diluted 1 in 15,000 and incubated for 1 h at rt. Protein bands were visualized and quantified using Odyssey near infrared imager (LI-COR, Lincoln, Nebr.).
(§3) Table 2 below lists effects of representative compounds of the present invention against SLP-76 serine 376 phosphorylation and ERK1/2 T202/Y204 phosphorylation in α-CD3 stimulated Jurkat E6.1 cells.

[2] = system: ERK1/2 T202/Y204 phosphorylation in α-CD3 stimulated Jurkat E6.1 cells; experiment: In vitro phosphorylation assay, ERK1/2 T202/Y204 (immunoblot); assay type: cell-based; conditions: Homo sapiens, 4 h pretreatment, read-out: ERK1/2 T202/Y204 Phosphorylation Onset Inhibition
Protocol: as §2, §3

T2 sequence (P06239 whole entry, species assumed): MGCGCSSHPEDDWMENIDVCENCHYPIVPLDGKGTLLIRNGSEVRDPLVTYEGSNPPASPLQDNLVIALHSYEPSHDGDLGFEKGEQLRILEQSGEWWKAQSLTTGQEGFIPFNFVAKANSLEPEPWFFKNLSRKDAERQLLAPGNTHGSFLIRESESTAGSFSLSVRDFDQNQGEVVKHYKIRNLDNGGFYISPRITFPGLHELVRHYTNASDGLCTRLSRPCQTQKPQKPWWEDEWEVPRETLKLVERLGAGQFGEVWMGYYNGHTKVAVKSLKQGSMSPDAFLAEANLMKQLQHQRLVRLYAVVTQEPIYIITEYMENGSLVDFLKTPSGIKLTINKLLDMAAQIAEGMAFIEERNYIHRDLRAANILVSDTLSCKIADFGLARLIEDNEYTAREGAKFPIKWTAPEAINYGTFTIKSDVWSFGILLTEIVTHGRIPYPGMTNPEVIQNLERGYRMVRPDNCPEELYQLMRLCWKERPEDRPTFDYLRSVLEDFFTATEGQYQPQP

pIC50 (human HPK1 (MAP4K1)): ≥ 7.30
pIC50 (LCK): 6.30 to 7.30
pIC50 (FLT3): ≥ 7.30
Structure (SMILES): CN1CCN(c2ccc3nc(-c4c(N[C@H]5CCC[C@H]5O)c5ccsc5[nH]c4=O)[nH]c3c2)CC1 [Example A58, 4-(((1S,2R)-2-hydroxy-cyclopentyl)amino)-5-(6-(4-methylpiperazin-1-yl)-1H-benzo[d]imidazol-2-yl)-thieno[2,3-b]pyridin-6(7H)-one]
IC75 [1]: 0.1 to 0.3 µM
minimal effective concentration [2]: > 3 µM
